# Assay results: paper PMC6290777, “Inhalation of the prodrug PI3K inhibitor CL27c improves lung function in asthma and fibrosis” (Nature Communications, 2018)
# Experiments:
# [1] = Microsomial stability, mouse; assay type: in vitro ADME; conditions: mouse liver microsomes, NADPH
# Experimental: To define whether this prodrug was suitable for inhaled administration, CL27c was studied to evaluate selected ADME (absorption, distribution, metabolism, and excretion) and pharmacokinetic properties. First, stability of CL27c and CL27e was analyzed in mouse plasma (Supplementary Table 1) and in mouse, rat, and human liver microsomes in the presence of nicotinamide adenine dinucleotide phosphate (NADPH; Supplementary Table 2). Next, clearance of CL27c was analyzed in C57BL/6J mice after either intra-venous or oral administration. […] Clearance of CL27c and CL27e after oral administration could not be determined due to their low bioavailability (Supplementary Table 3). […]
# obtained at 200 × magnification were analyzed using the software Image -J (NIH, USA). Results were expressed as extracellular matrix deposition area (pixels). […]
# Akt phosphorylation was measured by western blot as described in the “Western blot analysis” in […]
# Cells were obtained from Lymph nodes and spleen from naive C57Bl/6J and purified with CD4 T cell isolation Kit (Miltenyi Biotec #130-104-454) and with CD25 biotin (eBioscience #13-0252-81) and microbeads anti-biotin (Miltenyi Biotec #130-090-485). […] Positive stained cells were analyzed with FlowJo X software after removal of doublets events and debris through FSC-A/FSC-H gating.
# [2] = Microsomial stability, rat; assay type: in vitro ADME; conditions: rat liver microsomes, NADPH
# Experimental: To define whether this prodrug was suitable for inhaled administration, CL27c was studied to evaluate selected ADME (absorption, distribution, metabolism, and excretion) and pharmacokinetic properties. First, stability of CL27c and CL27e was analyzed in mouse plasma (Supplementary Table 1) and in mouse, rat, and human liver microsomes in the presence of nicotinamide adenine dinucleotide phosphate (NADPH; Supplementary Table 2). Next, clearance of CL27c was analyzed in C57BL/6J mice after either intra-venous or oral administration. […] Clearance of CL27c and CL27e after oral administration could not be determined due to their low bioavailability (Supplementary Table 3). Next, pharmacokinetics after inhalation was studied in C57BL/6J mice after delivering an aerosolized micro-suspension of CL27c. As shown in Table 1 and Supplementary Fig. 1b, CL27c dose-dependently reached the lungs and its metabolite CL27e was detectable after inhalation of the highest dose. […] Therefore, the inhaled prodrug promotes local effects but prevents systemic absorption of pharmacologically relevant amounts of the active compound. […]
# All tests for the microsomial stability of CL27c were conducted by the Istituto di Ricerche Biomediche (RBM) SpA – Merck Serono, Ivrea, Italy. […]
# Then, cells […]
# pretreated with different doses of CL27c were incubated at 37°C and 5% CO 2 for 10 minutes. […]
# [3] = test system: Akt phosphorylation (Ser473) in murine neutrophils; assay: Akt phosphorylation in primary neutrophils stimulated with C5a; assay type: cell-based, mouse; conditions: C5a 25 nM
# Experimental: Neutrophils were obtained from bone marrow isolated from femurs and tibias of C57BL/6J mice. Isolated bone marrow cells were centrifuged 12 min at 260× g and resuspended in 2 ml of physiologic salt solution and neutrophils were subsequently isolated after centrifugation (30 min at 1100× g, 4 °C without brake) through 3 Percoll gradients (from bottom to top: solution B, 75% of a 90% Percoll and 10% HBSS stock solution; solution C, 64% of a 90% Percoll and 10% HBSS stock solution; solution D 52% of a 90% Percoll and 10% HBSS stock solution). Once collected at the interface between the solution B and solution C, the cells were washed three times with 10 ml of physiologic salt solution and centrifuged for 5 min at 260 × g, 4 °C and pretreated for 1 h with CL27c at different concentration. After stimulation with C5a protein were extracted with Laemnli buffer.
# For all cell types, phosphorylated Akt (P-Akt, Ser 473, 1:100, Cell Signaling Technology #4060) production was detected by western blot analysis and quantified with ChemiDoc™ XRS system. P-Akt signals are normalized on endogenous. […] To derive the EC50, all data were plotted on a dose response curve (Graph Pad software) and the EC50 was calculated by using the non-linear regression fit (equation [log agonist] vs response–variable slope). […]
# panel). […] The respective EC50 was calculated by using nonlinear
smiles,measurement,setting,value
COC(=O)c1cccc(Cn2cc(-c3cccc4c(=O)cc(N5CCOCC5)[nH]c34)nn2)c1 [CL27c],Clint (intrinsic clearance),[1],0.1 ± 0.02 ml/min/mg prot
same,t1/2,[1],12.4 ± 2.0 min
same,Clint (intrinsic clearance),[2],0.2 ± 0.005 ml/min/mg prot
same,t1/2,[2],5.9 ± 0.1 min
same,Akt/PKB phosphorylation,[3],readily reduced Akt/PKB phosphorylation
